Data as given in patent US20240066043A1, “PHARMACEUTICAL CO[…] IMPROVED DISSOLUTION AND RAPID ONSET BY TARGETED STOMACH AND MUCOSAL RELEASE” (Xpira Pharmaceuticals Inc., priority 2022, published 2024).
Where two headings read alike, the source gives them in different places.

Tests used:
[1] = Particle size analysis from SEM micrographs (circle equivalent diameter); format: physicochemical; details: SEM micrograph FIG. 4B, unformulated psilocybin
[2] = molecular target: T1, neocortical serotonin 5-HT2A receptors (Homo sapiens, UniProt P28223); details: 25 mg oral dose (Madsen et al., 2019); cited from earlier work
T1 construct: host or cells: neocortex in vivo
T1 sequence (P28223 whole entry): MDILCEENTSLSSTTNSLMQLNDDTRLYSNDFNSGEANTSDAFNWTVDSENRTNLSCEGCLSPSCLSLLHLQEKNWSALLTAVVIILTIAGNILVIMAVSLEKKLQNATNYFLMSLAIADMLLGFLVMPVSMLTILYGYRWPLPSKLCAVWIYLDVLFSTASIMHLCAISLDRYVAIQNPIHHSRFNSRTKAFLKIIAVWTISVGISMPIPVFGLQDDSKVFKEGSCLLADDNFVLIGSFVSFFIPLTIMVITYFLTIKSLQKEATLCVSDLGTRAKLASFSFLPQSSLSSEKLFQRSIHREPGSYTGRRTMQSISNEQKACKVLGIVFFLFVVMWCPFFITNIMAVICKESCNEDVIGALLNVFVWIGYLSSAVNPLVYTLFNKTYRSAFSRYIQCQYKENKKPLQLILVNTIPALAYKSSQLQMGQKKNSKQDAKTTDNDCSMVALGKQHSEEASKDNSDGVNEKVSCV

[3] = cited from earlier work
[4] = cited from earlier work; remark: listed apart in the source
[5] = Flowability measurements (bulk density, tapped density, Hausner ratio, compressibility index)
[6] = cited from earlier work; remark: listed apart in the source
[7] = cited from earlier work; remark: listed apart in the source
[8] = oral 0.224 mg/kg psilocybin (10 to 20 mg) (Hasler et al., 1997)
[9] = oral psilocybin (Brown et al., 2017)

For `CN(C)CCc1c[nH]c2cccc(OP(=O)(O)O)c12` [Psilocybin, 3[2-(dimethylamino)ethyl]-1H-indol-4-yl] dihydrogen phosphate], the crystal size [1] is listed as at most 30 μm, the “occupancy of neocortical serotonin 5-HT2A receptors” value [2] is listed as “near-maximal occupancy” and the “peak of psychoactive effects” value ([3]; after a dose) is listed as “about two hours”. The “onset of noticeable psychoactive effects” value ([3]; after an oral dose) was “within one hour”, the “loss of psychoactive effects” value ([3]; after the dose) was “around six hours” and the solubility ([4]; boiling methanol) was 120 parts. For the same molecule, the solubility ([4]; boiling water) was 20 parts, the stability ([4]; dark storage at controlled room temperature) was “stable over extended periods” and the Bulk density ([5]; USP41-NF36 616) was 0.19 g/mL. It also gave a Tapped density ([5]; USP41-NF36 616) of 0.45 g/mL, a Compressibility index ([5]; USP41-NF36 1174) of 58% and a Hausner ratio ([5]; tap density divided by bulk density, USP41-NF36 1174) of 2.36. For the same molecule, the “pharmacokinetics of psilocybin (as psilocin), dose linearity” value ([6]; dose range 0.3-0.6 mg/kg (Brown et al., 2017; Hasler et al., 2002)) was “linear”, the “estimated dose-normalized bioavailability of psilocybin” value ([6]; oral 0.224 mg/kg psilocybin, N=3 (Hasler et al., 1997)) was 52.7±20% and the bioavailability ([6]; oral psilocybin) was about 50%.
For `CN(C)CCc1c[nH]c2cccc(O)c12` [psilocin], the “time to maximum plasma levels” value ([7]; oral, rats (Chen et al., 2011)) is listed as “approximately 90 minutes”, the “total volume of psilocin absorbed from the digestive tract” value ([7]; psilocybin administered orally to rats (Kalberer et al., 1962)) is listed as “approximately 50%” and the “time until psilocin detectable in plasma” value ([6]; after administration of the parent compound psilocybin) is listed as at most 20 min. For the same molecule, the “time until psilocin appears in plasma” value ([6]; after oral administration) was at most 15 min, the psilocin half-life ([6]; following oral administration of psilocybin (Brown et al., 2017)) was “approximately 3±1.1 hours” and the “half-life of psilocin in blood” value ([6]; in vivo) was 2 to 3 h. The “average blood concentration of the active metabolite psilocin” value [6, 8] was 8.2 ± 2.8 ng/mL, the “time of average blood concentration of psilocin” value [6, 8] was 105 ± 37 min and the “time of peak psilocin levels” value [6, 9] was “approximately 80 minutes”. The “time psilocin is detectable after administration” value [6, 9] was “up to 24 hours” and the “share of overall clearance of psilocin through renal excretion” value ([6]; urine over 24 hours after a single dose (Hasler et al., 2002)) was “less than 4%”.
